Laboratory results as given in article PMC4503349 (PLoS ONE, 2015).
Where a name gives a salt, the structure may show the parent alone. Each block holds one molecule with its values, some of them ahead of it.

Columns and labels:
[1] = biological target: T1, calcineurin (CaN; CnAα catalytic subunit) (Homo sapiens, UniProt Q08209); assay: malachite green phosphatase assay with RII phosphopeptide, absorbance dose-response, calmodulin present; format: biochemical
T1 construct: gene PPP3CA; recombinant human CaN, comprising CnAα and CnB subunits; with calcineurin B (CnB); calmodulin

[2] = biological target: T1, calcineurin (CaN; CnAα catalytic subunit); assay: malachite green phosphatase assay with RII phosphopeptide; format: biochemical

- IC50 ([1]; read-out: IC50): 106 µM
SMILES: Fc1ccc(C(c2ccc(F)cc2)N2CCN(C/C=C/c3ccccc3)CC2)cc1 [LDN-0013905, flunarizine hydrochloride]

SMILES: CN1CCN(CCCN2c3ccccc3Sc3ccc(C(F)(F)F)cc32)CC1 [LDN-0013906, tri-fluoperazine dihydrochloride]
- IC50 [1]: 4.5 µM

SMILES: O=C(O)[C@@H]1[C@H](C(=O)O)[C@H]2CC[C@@H]1O2 [endothall]
- IC50 [2]: 12.6 µM
